Measured values published in patent US9309263B2, “Fused multi-cyclic sulfone compounds as inhibitors of beta-secretase and methods of use thereof” (AMGEN INC., priority 2013, dated 2016).
Read-outs that look alike come from different tables or passages of the source.

Columns and labels:
[1] = target: Beta Secretase enzyme (BACE) (Homo sapiens, UniProt P56817); assay: In vitro enzymatic BACE FRET assay; type: biochemical; details: read-out: BACE1 FRET assay IC50
Method in brief: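 Enzyme (0.2 nM) pre-incubated 1 h with serially diluted inhibitors in 0.05 M acetate pH 4.2, 10% DMSO, 100 uM genapol. Reaction started with 50 nM fluorophore/quencher peptide FRET substrate, run 1 h, stopped with Tris to neutral pH. Fluorescence read at excitation 488 nm, […].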

[2] = system: Aβ 40 in conditioned medium of cells stably expressing Amyloid Precursor Protein (APP); assay: In vitro BACE cell-based assay (Aβ 40 sandwich ELISA)
Method in brief: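 APP-expressing cells, 24 h pre-culture in DMEM/10% FBS, treated 24 h with 10-point compound dilutions from 100 or 10 μM top, 0.1% DMSO final. Secreted Aβ40 quantified by sandwich ELISA (pAb40 capture, biotinylated 6E10 detection, europium TRF); IC50 from percent inhibition versus concentration.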

Cathepsin D (Cat D) = Cathepsin D (Cat D) (Homo sapiens, UniProt P07339); assay: In vitro enzymatic Cathepsin D (Cat D) FRET assay; type: biochemical; details: read-out: CatD IC50
Method in brief: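 Recombinant CHO-expressed enzyme (9 nM) pre-incubated 1 h with serially diluted inhibitor in 0.05 M citrate pH 3.5, 10% DMSO final, 5 mM CHAPS. Reaction started with 20 nM FRET peptide substrate, run 1 h, stopped with Tris to neutral pH; fluorescence read at ex 500/em 580 nm.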

[3] = average IC50, in vitro enzymatic BACE FRET assay
[4] = Homo sapiens, HEK293, average IC50, HEK cell assay, Aβ 40 readout
[5] = Homo sapiens, HEK293, HEK cells, average IC50

Chain of Beta Secretase enzyme (BACE) (P56817 46-501): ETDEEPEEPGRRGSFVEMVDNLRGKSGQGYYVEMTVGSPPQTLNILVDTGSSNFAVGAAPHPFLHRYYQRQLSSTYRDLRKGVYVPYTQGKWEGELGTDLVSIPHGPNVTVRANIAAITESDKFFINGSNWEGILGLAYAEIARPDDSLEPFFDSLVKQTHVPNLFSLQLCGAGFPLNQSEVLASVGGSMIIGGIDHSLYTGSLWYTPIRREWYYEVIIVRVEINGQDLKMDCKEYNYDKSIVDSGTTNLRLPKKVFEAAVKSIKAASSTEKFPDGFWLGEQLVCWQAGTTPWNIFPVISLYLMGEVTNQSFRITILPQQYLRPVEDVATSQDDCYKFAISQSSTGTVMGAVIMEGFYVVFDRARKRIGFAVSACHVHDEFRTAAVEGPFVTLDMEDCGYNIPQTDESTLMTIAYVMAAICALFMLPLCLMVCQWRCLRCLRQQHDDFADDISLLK
Chain of Cathepsin D (Cat D) (P07339 65-412, species assumed): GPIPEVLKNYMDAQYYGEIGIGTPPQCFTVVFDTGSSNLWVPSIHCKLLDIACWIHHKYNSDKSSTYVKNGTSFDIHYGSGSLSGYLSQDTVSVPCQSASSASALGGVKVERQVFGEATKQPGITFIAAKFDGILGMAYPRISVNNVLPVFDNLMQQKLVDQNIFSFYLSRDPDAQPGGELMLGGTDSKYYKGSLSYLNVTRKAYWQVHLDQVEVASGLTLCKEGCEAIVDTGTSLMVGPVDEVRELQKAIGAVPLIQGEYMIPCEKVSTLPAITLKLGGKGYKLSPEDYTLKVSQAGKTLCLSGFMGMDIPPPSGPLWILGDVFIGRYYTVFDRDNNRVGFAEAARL

IC50 [1, 3] [µM] | IC50 [2, 4] [µM] | IC50 (Cathepsin D (Cat D); Cathepsin D FRET assay) [µM] | IC50 ([2]; average IC50, HEK cell assay, Aβ 40 readout) [µM] | IC50 ([1]; average IC50) [µM] | IC50 [2, 5] [µM] | IC50 (Cathepsin D (Cat D)) [µM] | SMILES
0.005 | 0.004 | 804 |  |  |  |  | C[C@H]1C[C@@H]2[C@](C)(N=C(N)C(C)(C)S2(=O)=O)c2cc(Nc3nccc4nc(OCc5ccn(C)n5)cnc34)ccc2O1 [Example 146, (4aR,6S,11bR)-3,3,6,11b-tetramethyl-N^~10^~-(2-((1-methyl-1H-pyrazol-3-yl)methoxy)pyrido[3,4-b]pyrazin-5-yl)-4a,5,6,11b-tetrahydro-3H-[1]benzoxepino[4,5-b][1,4]thiazine-2,10-diamine 4,4-dioxide]
0.003 | 0.009 | 1280 |  |  |  |  | Cc1cc(Cl)cnc1C(=O)Nc1ccc2c(c1)[C@@]1(CF)N=C(N)C(C)(C)S(=O)(=O)[C@H]1CCO2 [Example 147, N-((4aS,11bS)-2-amino-11b-(fluoromethyl)-3,3-dimethyl-4,4-dioxido-4a,5,6,11b-tetrahydro-3H-[1]benzoxepino[4,5-b][1,4]thiazin-10-yl)-5-chloro-3-methyl-2-pyridinecarboxamide]
0.012 | 0.093 | 710 |  |  |  |  | CC1(C)C(N)=N[C@]2(CF)c3cc(Nc4nccc5cc(Cl)cnc45)ccc3OCC[C@H]2S1(=O)=O [Example 148, (4aR,11bS)-N^~10^~-(3-chloro-1,7-naphthyridin-8-yl)-11b-(fluoromethyl)-3,3-dimethyl-4a,5,6,11b-tetrahydro-3H-[1]benzoxepino[4,5-b][1,4]thiazine-2,10-diamine 4,4-dioxide]
0.009 | 0.044 | > 400 |  |  |  |  | Cc1cc(Cl)cnc1C(=O)Nc1ccc2c(c1)[C@@]1(CF)N=C(N)C(C)(C)S(=O)(=O)[C@@H]1CCO2 [Example 149, N-((4aR,11bS)-2-amino-11b-(fluoromethyl)-3,3-dimethyl-4,4-dioxido-4a,5,6,11b-tetrahydro-3H-[1]benzoxepino[4,5-b][1,4]thiazin-10-yl)-5-chloro-3-methyl-2-pyridinecarboxamide]
0.227 | 1.4 | > 400 |  |  |  |  | CC(C)Oc1cnc2c(Nc3ccc4c(c3)[C@@]3(CF)N=C(N)C(C)(C)S(=O)(=O)[C@@H]3CCO4)nccc2n1 [Example 150, (4aR,11bS)-11b-(fluoromethyl)-3,3-dimethyl-N^~10^~-(2-(1-methylethoxy)pyrido[3,4-b]pyrazin-5-yl)-4a,5,6,11b-tetrahydro-3H-[1]benzoxepino[4,5-b][1,4]thiazine-2,10-diamine 4,4-dioxide]
0.037 | 0.068 | > 400 |  |  |  |  | COc1cnc2c(Nc3ccc4c(c3)[C@@]3(CF)N=C(N)C(C)(C)S(=O)(=O)[C@@H]3CCO4)nccc2n1 [Example 151, (4aR,11bS)-11b-(fluoromethyl)-N^~10^~-(2-methoxypyrido[3,4-b]pyrazin-5-yl)-3,3-dimethyl-4a,5,6,11b-tetrahydro-3H-[1]benzoxepino[4,5-b][1,4]thiazine-2,10-diamine 4,4-dioxide]
0.031 | 0.075 | > 400 |  |  |  |  | COc1cnc(C(=O)Nc2ccc3c(c2)[C@@]2(CF)N=C(N)C(C)(C)S(=O)(=O)[C@@H]2CCO3)c(C)c1 [Example 152, N-((4aR,11bS)-2-amino-11b-(fluoromethyl)-3,3-dimethyl-4,4-dioxido-4a,5,6,11b-tetrahydro-3H-[1]benzoxepino[4,5-b][1,4]thiazin-10-yl)-5-methoxy-3-methyl-2-pyridinecarboxamide]
0.002 | 0.006 | 2070 |  |  |  |  | Cc1cc(C#N)cnc1C(=O)Nc1ccc2c(c1)[C@@]1(CF)N=C(N)C(C)(C)S(=O)(=O)[C@H]1CCO2 [Example 153, N-((4aS,11bS)-2-amino-11b-(fluoromethyl)-3,3-dimethyl-4,4-dioxido-4a,5,6,11b-tetrahydro-3H-[1]benzoxepino[4,5-b][1,4]thiazin-10-yl)-5-cyano-3-methyl-2-pyridinecarboxamide]
0.003 |  | 462 | 0.032 |  |  |  | CC1(C)C(N)=N[C@]2(CF)c3cc(Nc4nccc5cc(Cl)cnc45)ccc3OCC[C@@H]2S1(=O)=O [Example 154, (4aS,11bS)-N1^~10^~-(3-chloro-1,7-naphthyridin-8-yl)-11b-(fluoromethyl)-3,3-dimethyl-4a,5,6,11b-tetrahydro-3H-[1]benzoxepino[4,5-b][1,4]thiazine-2,10-diamine 4,4-dioxide]
0.014 | 0.062 | > 400 |  |  |  |  | COc1cnc2c(Nc3ccc4c(c3)[C@@]3(CF)N=C(N)C(C)(C)S(=O)(=O)[C@H]3CCO4)nccc2n1 [Example 155, (4aS,11bS)-11b-(fluoromethyl)-N^~10^~-(2-methoxypyrido[3,4-b]pyrazin-5-yl)-3,3-dimethyl-4a,5,6,11b-tetrahydro-3H-[1]benzoxepino[4,5-b][1,4]thiazine-2,10-diamine 4,4-dioxide]
0.011 | 0.014 | 1030 |  |  |  |  | COc1cnc2c(Nc3ccc4c(c3)[C@@]3(C)N=C(N)C(C)(C)S(=O)(=O)[C@@H]3CCO4)nccc2n1 [Example 156, (4aR,11bR)-N^~10^~-(2-methoxypyrido[3,4-b]pyrazin-5-yl)-3,3,11b-trimethyl-4a,5,6,11b-tetrahydro-3H-[1]benzoxepino[4,5-b][1,4]thiazine-2,10-diamine 4,4-dioxide]
0.002 | 0.003 | 1200 |  |  |  |  | Cc1cc(OC(F)F)cnc1C(=O)Nc1ccc2c(c1)[C@@]1(C)N=C(N)C(C)(C)S(=O)(=O)[C@@H]1CCO2 [Example 157, N-((4aR,11bR)-2-amino-3,3,11b-trimethyl-4,4-dioxido-4a,5,6,11b-tetrahydro-3H-[1]benzoxepino[4,5-b][1,4]thiazin-10-yl)-5-(difluoromethoxy)-3-methyl-2-pyridinecarboxamide]
0.021 | 0.007 | > 400 |  |  |  |  | COc1cnc(C(=O)Nc2ccc3c(c2)[C@@]2(C)N=C(N)C(C)(C)S(=O)(=O)[C@@H]2CCO3)c(C)c1 [Example 158, N-((4aR,11bR)-2-amino-3,3,11b-trimethyl-4,4-dioxido-4a,5,6,11b-tetrahydro-3H-[1]benzoxepino[4,5-b][1,4]thiazin-10-yl)-5-methoxy-3-methyl-2-pyridinecarboxamide]
0.075 | 0.052 | > 400 |  |  |  |  | COc1cnc2c(Nc3ccc4c(c3)[C@@]3(C)N=C(N)C(C)(C)S(=O)(=O)[C@H]3CCO4)nccc2n1 [Example 159, (4aS,11bR)-N^~10^~-(2-methoxypyrido[3,4-b]pyrazin-5-yl)-3,3,11b-trimethyl-4a,5,6,11b-tetrahydro-3H-[1]benzoxepino[4,5-b][1,4]thiazine-2,10-diamine 4,4-dioxide]
 |  |  |  | 0.01 | 0.003 | 1170 | Cc1cc(OC(F)F)cnc1C(=O)Nc1ccc2c(c1)[C@@]1(C)N=C(N)C(C)(C)S(=O)(=O)[C@H]1CCO2 [Example 160, N-((4aS,11bR)-2-amino-3,3,11b-trimethyl-4,4-dioxido-4a,5,6,11b-tetrahydro-3H-[1]benzoxepino[4,5-b][1,4]thiazin-10-yl)-5-(difluoromethoxy)-3-methyl-2-pyridinecarboxamide]
 |  |  |  | 0.032 | 0.008 | 878 | COc1cnc(C(=O)Nc2ccc3c(c2)[C@@]2(C)N=C(N)C(C)(C)S(=O)(=O)[C@H]2CCO3)c(C)c1 [Example 161, N-((4aS,11bR)-2-amino-3,3,11b-trimethyl-4,4-dioxido-4a,5,6,11b-tetrahydro-3H-[1]benzoxepino[4,5-b][1,4]thiazin-10-yl)-5-methoxy-3-methyl-2-pyridinecarboxamide]
 |  |  |  | 0.007 | 0.009 | 619 | COc1cnc2c(Nc3ccc4c(c3)[C@@]3(C)N=C(N)C(C)(C)S(=O)(=O)[C@@H]3CCO4)ncnc2c1 [Example 162, (4aR,11bR)-N^~10^~-(7-methoxypyrido[3,2-d]pyrimidin-4-yl)-3,3,11b-trimethyl-4a,5,6,11b-tetrahydro-3H-[1]benzoxepino[4,5-b][1,4]thiazine-2,10-diamine 4,4-dioxide]
 |  |  |  | 0.005 | 0.003 | > 400 | Cc1cc(C(F)F)cnc1C(=O)Nc1ccc2c(c1)[C@@]1(C)N=C(N)C(C)(C)S(=O)(=O)[C@@H]1CCO2 [Example 163, N-((4aR,11bR)-2-amino-3,3,11b-trimethyl-4,4-dioxido-4a,5,6,11b-tetrahydro-3H-[1]benzoxepino[4,5-b][1,4]thiazin-10-yl)-5-(difluoromethyl)-3-methyl-2-pyridinecarboxamide]
 |  |  |  | 0.028 | 0.017 | 1600 | CC1(C)C(N)=N[C@]2(C)c3cc(NC(=O)c4cnc(C(F)(F)F)cn4)ccc3OCC[C@H]2S1(=O)=O [Example 164, N-((4aR,11bR)-2-amino-3,3,11b-trimethyl-4,4-dioxido-4a,5,6,11b-tetrahydro-3H-[1]benzoxepino[4,5-b][1,4]thiazin-10-yl)-5-(trifluoromethyl)-2-pyrazinecarboxamide]
